Assay [1] relates to MBP:FUS (full-length FUS droplets) / Kapβ2. In words: Turbidity assay of FUS droplet formation (OD 395 nm). The class given is biochemical. The settings on record: equimolar poly-dipeptide and Kapβ2 (8 μM).
For assay [2], the system named is Importinα. In words: Pull-down binding assay, GST:Importinα. The settings on record: GST:Importinα on beads. From the text: (§1) Unbound proteins were washed three times with the buffer.
Assay [3] deals with Kapβ2. In words: Pull-down (on-column) binding assay, Kapβ2. The settings on record: purified recombinant proteins, 20 mM HEPES pH 7.4, 150 mM NaCl, equal molar, 20–30 min.
Text: as §1

In assay [4] the test system is Importinβ1. In words: Pull-down binding assay, GST:Importinβ1. To be noted: GST:Importinβ1 on beads.
Text: as §1

Assay [5] has as its system Kapβ2. Nature of the assay: Isothermal titration calorimetry. Type of assay: binding. To be noted: ITC, Supplementary Table 1 (not shown). The procedure:
ITC experiments were performed with a Malvern iTC200 calorimeter (Malvern Instruments). […] ITC experiments were performed at 25 °C with 19 rounds of 2 μL injections. Data were analyzed using Origin software.
(In general: Isothermal titration calorimetry measures the heat released or taken up as one component is titrated into another.)

The subject of assay [6] is Kapβ2. In words: Analytical ultracentrifugation. The class given is binding. To be noted: 28 µM each, 25 °C, 20 mM HEPES pH 7.4, 150 mM NaCl. On the procedure:
AUC measurements were conducted with ProteomeLab XL-I (Beckman Coulter). […] The solutions were filled in 1.5 mm path-length titanium cells (Nanolytics). The measurements were performed with Rayleigh-interference optics at rotor speed of 125,000 × g (at 70 mm radius). The temperature was set at 25 °C. The weight concentration distribution as a function of sedimentation coefficient c(s20,w) and frictional ratio f/f0 were computed with SEDFIT[49] and Igor Pro software. The sedimentation coefficient was normalized to be the value at 20 °C in pure water s20,w. The molecular weight M was calculated with the corresponding peak value of s20,w and f/f0[49].

Assay [7] has as its system endogenous Kapβ2. In words: Immunoprecipitation from HeLa cells. The class given is binding. To be noted: expressed in HeLa cells; cytosol extract, Streptavidin Mag Sepharose. The procedure: The pcDNA5/FRT/TO-HA:SBP plasmid was generated by inserting the PCR-amplified HA:SBP sequence into the pcDNA5/FRT/TO vector (Thermo Fisher Scientific) between the HindIII and BamHI sites. The HA:SBP:GFP:PR20:HA plasmid was constructed by ligating the GFP:PR20:HA sequence into the pcDNA5/FRT/TO-HA-SBP between the EcoRV and XhoI sites. The HA:SBP:Kapβ2 plasmid was constructed by ligating the Kapβ2 sequence into the pcDNA5/FRT/TO-HA:SBP between the BamHI and NotI sites. HeLa cells were cultured in Dulbecco’s modified Eagle medium/10% fetal bovine serum at 37 °C with 5% CO2. Cells were transfected with plasmids using Lipofectamine 3000 (Thermo Fisher Scientific) according to the manufacturer’s instructions. HeLa cytosol extracts were prepared by Cytoplasmic Extraction buffer (CE; 10 mM HEPES pH 7.9, 60 mM KCl, 1 mM EDTA, 0.075% NP40, 1 mM DTT, and cOmplete™ EDTA-free protease inhibitor [Sigma-Aldrich]) for 10 min on ice and then separated from nuclear by centrifugation at 500 × g for 10 min. The resultant extracts were cleared by centrifugation at 20,400 × g for 10 min. The supernatant containing the HeLa cytosol extracts were mixed with the Streptavidin Mag Sepharose (GE Healthcare) and rotated at 4 °C overnight. The beads were finally washed five times with CE buffer. The anti-Kapβ2 (sc-166127, 1 : 1000) antibody was obtained from Santa Cruz Biotechnology. […]

For assay [8], the system named is Lysozyme. Nature of the assay: Pull-down binding assay, Lysozyme control. To be noted: GST:PR18 on beads.
Text: as §1

The test system of assay [9] is BSA. In words: Pull-down binding assay, BSA control. The settings on record: GST:PR18 on beads.
Text: as §1

Assay [10] deals with EGFP. The settings on record: GST:PR18 on beads. The procedure: (§2) Four micrograms of GST proteins were immobilized on 30 μL of beads. […] Unbound proteins were washed three times with the buffer. Bound proteins and unbound proteins were separated by SDS-polyacrylamide gel electrophoresis and stained with Coomassie Brilliant Blue.
The subject of assay [11] is MBP. To be noted: GST:PR18 on beads. The procedure:
as §2

Where no end group is shown, it is not given here. MBP = maltose-binding protein; HA = HA epitope tag

Take GA20: in assay [1], the “Inhibition of the ability of Kapβ2 to melt FUS droplets (turbidity)” value was “did not”.
In the case of “MBP:PR18: maltose-binding protein fusion of 18 repeats of Pro-Arg (PRPRPRPRPRPRPRPRPRPRPRPRPRPRPRPRPRPR; also: MBP fusion, end not given here)”, in assay [2], the “Binding to Importinα (pull-down)” value is on record as “interactions”. Besides, in assay [3], the “Binding to Kapβ2 (pull-down)” value was “bound Kapβ2”. Besides, the “Binding to Importinβ1 (pull-down)” value in [4] is reported as “interactions”. The “Relative binding strength to Kapβ2 vs full-length FUS” value in assay [5] is given as “bound Kapβ2 more strongly than full-length FUS does”. Further, in assay [6], the “Complex formation with Kapβ2 (AUC)” value was “complex formation”.
With “MBP:PR8: maltose-binding protein fusion of 8 repeats of Pro-Arg ({MBP}-PRPRPRPRPRPRPRPR)”, in assay [3], the “Binding to Kapβ2 (pull-down)” value was “did not”.
Regarding “HA:SBP:GFP:PR20:HA: PR20 fusion expressed from plasmid in HeLa cells ({HA-SBP-GFP}-PRPRPRPRPRPRPRPRPRPRPRPRPRPRPRPRPRPRPRPR-{HA}; not fully specified)”, the “Co-immunoprecipitation of endogenous Kapβ2” value in [7] was “interaction between endogenous Kapβ2 and HA:SBP:GFP:PR20:HA”.
On to “GST:PR18: Glutathione S-transferase fusion of PR18 (PRPRPRPRPRPRPRPRPRPRPRPRPRPRPRPRPRPR; also: GST fusion, end not given here)”, for which, in [8], the “Binding to Lysozyme (pull-down)” value is “no interaction”. Also, the “Binding to BSA (pull-down)” value in assay [9] is reported as “no interaction”. Also, the “Binding to Kapβ2 (pull-down)” value in [3] was “bound Kapβ2”. Further, in assay [10], the “Binding to EGFP (pull-down)” value is “no interaction”. Besides, the “Binding to MBP (pull-down)” value in [11] is on record as “no interaction”.

Source of the values: PMC8421406, “C9orf72-derived arginine-rich poly-dipeptides impede phase modifiers” (Nature Communications, 2021).
